{"source": "paper PMC5218480", "about": "(PLoS ONE, 2017)", "system": "MV-4-11 cells", "assay": "Gene expression microarray analysis (Affymetrix PrimeView) and GSEA", "format": "cell-based, human", "parameters": "RFU PODN (11730768_x_at) / Fold change /veh PODN (11730768_x_at) / RFU LINC00158 (11744669_a_at) / Fold change /veh LINC00158 (11744669_a_at) / RFU DUSP10 (11751237_a_at) / Fold change /veh DUSP10 (11751237_a_at) / RFU ID3 (11757404_x_at) / Fold change /veh ID3 (11757404_x_at) / RFU PLEKHG5 (11737974_s_at) / Fold change /veh PLEKHG5 (11737974_s_at) / RFU LRRC4B (11730491_at) / Fold change /veh LRRC4B (11730491_at) / RFU GIMAP4 (11747438_a_at) / Fold change /veh GIMAP4 (11747438_a_at) / RFU KRT8 (11758183_x_at) / Fold change /veh KRT8 (11758183_x_at) / RFU CNN1 (11734310_a_at) / Fold change /veh CNN1 (11734310_a_at) / RFU VPS37D (11726825_at) / Fold change /veh VPS37D (11726825_at) / RFU C10orf10 (11716522_x_at) / Fold change /veh C10orf10 (11716522_x_at) / RFU KIR2DL2 /// KIR2DL4 /// KIR2DL5A /// KIR2DL5B /// KIR2DS1 /// KIR2DS2 /// KIR2DS3 /// KIR2DS4 /// KIR3DL3 /// KIR3DL3 /// KIR3DS1 (11738374_at) / Fold change /veh KIR2DL2 /// KIR2DL4 /// KIR2DL5A /// KIR2DL5B /// KIR2DS1 /// KIR2DS2 /// KIR2DS3 /// KIR2DS4 /// KIR3DL3 /// KIR3DL3 /// KIR3DS1 (11738374_at) / RFU C1QL1 (11718748_at) / Fold change /veh C1QL1 (11718748_at) / RFU TMPRSS4 (11747572_a_at) / Fold change /veh TMPRSS4 (11747572_a_at) / RFU HAMP (11756126_x_at) / Fold change /veh HAMP (11756126_x_at) / RFU RNFT2 (11725882_a_at) / Fold change /veh RNFT2 (11725882_a_at) / RFU NR4A2 (11747474_a_at) / Fold change /veh NR4A2 (11747474_a_at) / RFU ABCC12 (11746883_a_at) / Fold change /veh ABCC12 (11746883_a_at) / RFU TMEM136 (11760407_x_at) / Fold change /veh TMEM136 (11760407_x_at) / RFU CLDN22 /// WWC2 (11732394_at) / Fold change /veh CLDN22 /// WWC2 (11732394_at) / RFU HLA-DPB1 (11760878_x_at) / Fold change /veh HLA-DPB1 (11760878_x_at) / RFU SPINT1 (11716480_a_at) / Fold change /veh SPINT1 (11716480_a_at) / RFU GAP43 (11754022_s_at) / Fold change /veh GAP43 (11754022_s_at) / RFU A4GNT (11735810_at) / Fold change /veh A4GNT (11735810_at) / RFU PRB3 (11715151_x_at) / Fold change /veh PRB3 (11715151_x_at) / RFU TUBB4B (11761932_at) / Fold change /veh TUBB4B (11761932_at) / RFU CAPN14 (11732068_a_at) / Fold change /veh CAPN14 (11732068_a_at) / RFU TMCC2 (11721928_a_at) / Fold change /veh TMCC2 (11721928_a_at) / RFU IRGQ (11745062_a_at) / Fold change /veh IRGQ (11745062_a_at) / RFU FAM174B (11720279_a_at) / Fold change /veh FAM174B (11720279_a_at) / RFU TMPRSS4 (11748680_a_at) / Fold change /veh TMPRSS4 (11748680_a_at) / RFU FAM212B (11763350_a_at) / Fold change /veh FAM212B (11763350_a_at) / RFU PLEKHG5 (11743358_a_at) / Fold change /veh PLEKHG5 (11743358_a_at) / RFU ZSCAN30 (11745921_a_at) / Fold change /veh ZSCAN30 (11745921_a_at) / RFU CMKLR1 (11741424_a_at) / Fold change /veh CMKLR1 (11741424_a_at) / RFU LOC101060620 /// MAPK8IP1 (11723275_at) / Fold change /veh LOC101060620 /// MAPK8IP1 (11723275_at) / RFU SPTSSB (11747773_x_at) / Fold change /veh SPTSSB (11747773_x_at) / RFU PRSS12 (11739890_at) / Fold change /veh PRSS12 (11739890_at) / RFU BIN1 (11741810_x_at) / Fold change /veh BIN1 (11741810_x_at) / RFU WNT11 (11732464_a_at) / Fold change /veh WNT11 (11732464_a_at) / RFU C10orf10 (11716521_a_at) / Fold change /veh C10orf10 (11716521_a_at) / RFU C5orf56 (11738089_at) / Fold change /veh C5orf56 (11738089_at) / RFU CYB561 (11721691_x_at) / Fold change /veh CYB561 (11721691_x_at) / RFU ANKRD19P (11752326_a_at) / Fold change /veh ANKRD19P (11752326_a_at) / RFU OR2T12 /// OR2T33 /// OR2T8 (11738714_s_at) / Fold change /veh OR2T12 /// OR2T33 /// OR2T8 (11738714_s_at) / RFU VCAN (11748164_a_at) / Fold change /veh VCAN (11748164_a_at) / RFU JSRP1 (11732532_at) / Fold change /veh JSRP1 (11732532_at) / RFU KRTAP10-11 (11738290_x_at) / Fold change /veh KRTAP10-11 (11738290_x_at) / RFU MYO3A (11730013_a_at) / Fold change /veh MYO3A (11730013_a_at) / RFU EBF3 (11725865_a_at) / Fold change /veh EBF3 (11725865_a_at) / RFU CAMK2N1 (11719241_x_at) / Fold change /veh CAMK2N1 (11719241_x_at) / RFU C5orf56 (11738088_a_at) / Fold change /veh C5orf56 (11738088_a_at) / RFU OLFML3 (11715873_a_at) / Fold change /veh OLFML3 (11715873_a_at) / RFU LOC100653217 /// NTM (11731650_a_at) / Fold change /veh LOC100653217 /// NTM (11731650_a_at) / RFU MAPK11 (11762145_a_at) / Fold change /veh MAPK11 (11762145_a_at) / RFU FIZ1 (11724087_x_at) / Fold change /veh FIZ1 (11724087_x_at) / RFU OASL (11726364_x_at) / Fold change /veh OASL (11726364_x_at) / RFU SOX15 (11748057_x_at) / Fold change /veh SOX15 (11748057_x_at) / RFU CD79A (11719716_a_at) / Fold change /veh CD79A (11719716_a_at) / RFU HIST1H1D (11736915_at) / Fold change /veh HIST1H1D (11736915_at) / RFU CASKIN2 (11723855_a_at) / Fold change /veh CASKIN2 (11723855_a_at) / RFU LOC730098 (11760151_x_at) / Fold change /veh LOC730098 (11760151_x_at) / RFU OR4N2 (11742367_at) / Fold change /veh OR4N2 (11742367_at) / RFU PRRT2 (11749266_a_at) / Fold change /veh PRRT2 (11749266_a_at) / RFU SNX32 (11753110_a_at) / Fold change /veh SNX32 (11753110_a_at) / RFU CDHR5 (11726645_a_at) / Fold change /veh CDHR5 (11726645_a_at) / RFU RCAN1 (11760418_a_at) / Fold change /veh RCAN1 (11760418_a_at) / RFU FAM167A (11723789_a_at) / Fold change /veh FAM167A (11723789_a_at) / RFU FAM26E (11764081_at) / Fold change /veh FAM26E (11764081_at) / RFU ISYNA1 (11749810_s_at) / Fold change /veh ISYNA1 (11749810_s_at) / RFU ACY1 (11761880_at) / Fold change /veh ACY1 (11761880_at) / RFU 11764098_at / Fold change /veh 11764098_at / RFU SAMD14 (11745864_x_at) / Fold change /veh SAMD14 (11745864_x_at) / RFU NPB (11741838_a_at) / Fold change /veh NPB (11741838_a_at) / RFU TMPRSS6 (11731388_a_at) / Fold change /veh TMPRSS6 (11731388_a_at) / RFU KRTAP10-2 (11738614_at) / Fold change /veh KRTAP10-2 (11738614_at) / RFU ARHGAP8 /// PRR5-ARHGAP8 (11727945_x_at) / Fold change /veh ARHGAP8 /// PRR5-ARHGAP8 (11727945_x_at) / RFU KRTAP5-7 /// NADSYN1 (11734609_at) / Fold change /veh KRTAP5-7 /// NADSYN1 (11734609_at) / RFU RASL12 (11751679_a_at) / Fold change /veh RASL12 (11751679_a_at) / RFU CDKN2B (11736163_a_at) / Fold change /veh CDKN2B (11736163_a_at) / RFU PRF1 (11729649_at) / Fold change /veh PRF1 (11729649_at) / RFU, ZNF638 /// ZNF638-IT1 / Fold change vs veh, ZNF638 /// ZNF638-IT1 / RFU, PANK3 / Fold change vs veh, PANK3 / RFU, SH3YL1 / Fold change vs veh, SH3YL1 / RFU, ZEB2 / Fold change vs veh, ZEB2 / RFU, NRIP1 / Fold change vs veh, NRIP1 / RFU, PTTG1IP / Fold change vs veh, PTTG1IP / RFU, CAPN2 / Fold change vs veh, CAPN2 / RFU, MED14 / Fold change vs veh, MED14 / RFU, SNORA58 / Fold change vs veh, SNORA58 / RFU, C1orf63 / Fold change vs veh, C1orf63 / RFU, LRRFIP1 / Fold change vs veh, LRRFIP1 / RFU, NDUFAF7 / Fold change vs veh, NDUFAF7 / RFU, SLC12A2 / Fold change vs veh, SLC12A2 / RFU, IBTK / Fold change vs veh, IBTK / RFU, ESF1 / Fold change vs veh, ESF1 / Fold change vs veh, TMEM50B / RFU, TAOK1 / Fold change vs veh, TAOK1 / RFU, ACBD3 / Fold change vs veh, ACBD3 / RFU, TMA16 / Fold change vs veh, TMA16 / RFU, RWDD3 / Fold change vs veh, RWDD3 / RFU, BCAT1 / Fold change vs veh, BCAT1 / RFU, EDEM3 / Fold change vs veh, EDEM3 / RFU, TMEM33 / Fold change vs veh, TMEM33 / RFU, WDR75 / Fold change vs veh, WDR75 / RFU, AHCTF1 / Fold change vs veh, AHCTF1 / RFU, TFRC / Fold change vs veh, TFRC / RFU, ZDHHC17 / Fold change vs veh, ZDHHC17 / RFU, NOM1 / Fold change vs veh, NOM1 / RFU, ARL8B / Fold change vs veh, ARL8B / RFU, ZBTB11 / Fold change vs veh, ZBTB11 / RFU, TAMM41 / Fold change vs veh, TAMM41 / RFU, KIAA1704 /// LOC100996395 / Fold change vs veh, KIAA1704 /// LOC100996395 / RFU, ING1 / Fold change vs veh, ING1 / RFU, TRMT61B / Fold change vs veh, TRMT61B / RFU, FUBP3 / Fold change vs veh, FUBP3 / RFU, TP53 / Fold change vs veh, TP53 / RFU, TNKS2 / Fold change vs veh, TNKS2 / RFU, ZFP14 / Fold change vs veh, ZFP14 / RFU, ACTR2 / Fold change vs veh, ACTR2 / RFU, PPP3R1 / Fold change vs veh, PPP3R1 / RFU, PIK3R1 / Fold change vs veh, PIK3R1 / RFU, HNRNPA1 / Fold change vs veh, HNRNPA1 / RFU, RNF170 / Fold change vs veh, RNF170 / RFU, ZNF28 / Fold change vs veh, ZNF28 / RFU, RNGTT / Fold change vs veh, RNGTT / RFU, OGT / Fold change vs veh, OGT / RFU, BRD1 / Fold change vs veh, BRD1 / RFU, MARS / Fold change vs veh, MARS / RFU, ZNF655 / Fold change vs veh, ZNF655 / RFU, FAHD1 / Fold change vs veh, FAHD1 / RFU, BDP1 / Fold change vs veh, BDP1 / RFU, LRRCC1 / Fold change vs veh, LRRCC1 / RFU, ARID1A / Fold change vs veh, ARID1A / RFU, ZNF146 / Fold change vs veh, ZNF146 / RFU, ZNF330 / Fold change vs veh, ZNF330 / RFU, GPN3 / Fold change vs veh, GPN3 / RFU, C9orf123 / Fold change vs veh, C9orf123 / RFU, N4BP2L2 / Fold change vs veh, N4BP2L2 / RFU, ARFIP1 / Fold change vs veh, ARFIP1 / RFU, FAM179B / Fold change vs veh, FAM179B / RFU, BCL10 / Fold change vs veh, BCL10 / RFU, UHRF1BP1L / Fold change vs veh, UHRF1BP1L / RFU, BET1 / Fold change vs veh, BET1 / RFU, CNOT2 / Fold change vs veh, CNOT2 / RFU, ZNF268 / Fold change vs veh, ZNF268 / Fold change vs veh, ZNF507 / RFU, DGCR2 / Fold change vs veh, DGCR2 / RFU, WDSUB1 / Fold change vs veh, WDSUB1 / Fold change vs veh, HSP90B1 /// MIR3652 / RFU, ADSS / Fold change vs veh, ADSS / RFU, GK / Fold change vs veh, GK / RFU, ZNF148 / Fold change vs veh, ZNF148 / RFU, TAF9 / Fold change vs veh, TAF9 / RFU, SLC1A5 / Fold change vs veh, SLC1A5 / RFU, SLMO2 / Fold change vs veh, SLMO2 / RFU, ABCC4 / Fold change vs veh, ABCC4 / RFU, LOC101060439 /// RAP1B / Fold change vs veh, LOC101060439 /// RAP1B / RFU, RFX7 / Fold change vs veh, RFX7 / RFU, GTPBP10 / Fold change vs veh, GTPBP10 / RFU, CNEP1R1 / Fold change vs veh, CNEP1R1 / RFU, BIVM-ERCC5 /// ERCC5 / Fold change vs veh, BIVM-ERCC5 /// ERCC5 / RFU, ILF3 / Fold change vs veh, ILF3 / RFU 11762660_at / Fold change /veh 11762660_at / RFU VCAN (11757783_s_at) / Fold change /veh VCAN (11757783_s_at) / RFU DDX43 (11728927_at) / Fold change /veh DDX43 (11728927_at) / RFU KRT8 (11758188_x_at) / Fold change /veh KRT8 (11758188_x_at) / RFU NKD1 (11759106_at) / Fold change /veh NKD1 (11759106_at) / RFU SRD5A1 (11742802_a_at) / Fold change /veh SRD5A1 (11742802_a_at) / RFU TPSAB1 /// TPSB2 (11721975_s_at) / Fold change /veh TPSAB1 /// TPSB2 (11721975_s_at) / RFU GSTM3 (11746129_a_at) / Fold change /veh GSTM3 (11746129_a_at) / RFU IL23R (11737362_x_at) / Fold change /veh IL23R (11737362_x_at) / RFU TMEM51 (11727254_a_at) / Fold change /veh TMEM51 (11727254_a_at) / RFU PIWIL2 (11732686_x_at) / Fold change /veh PIWIL2 (11732686_x_at) / RFU ORM1 (11744905_x_at) / Fold change /veh ORM1 (11744905_x_at) / RFU CCDC152 (11743942_at) / Fold change /veh CCDC152 (11743942_at) / RFU ECM1 (11717891_a_at) / Fold change /veh ECM1 (11717891_a_at) / RFU IL23R (11748794_a_at) / Fold change /veh IL23R (11748794_a_at) / RFU TNFAIP8L3 (11732012_x_at) / Fold change /veh TNFAIP8L3 (11732012_x_at) / RFU MBOAT4 (11741988_at) / Fold change /veh MBOAT4 (11741988_at) / RFU 11764193_at / Fold change /veh 11764193_at / RFU TMEM53 (11763286_at) / Fold change /veh TMEM53 (11763286_at) / RFU MAGEB2 (11727129_at) / Fold change /veh MAGEB2 (11727129_at) / RFU TMEM200A (11744735_a_at) / Fold change /veh TMEM200A (11744735_a_at) / RFU CCDC152 (11751479_a_at) / Fold change /veh CCDC152 (11751479_a_at) / RFU FAM211A (11726209_a_at) / Fold change /veh FAM211A (11726209_a_at) / RFU RGS16 (11746705_a_at) / Fold change /veh RGS16 (11746705_a_at) / RFU VCAN (11755009_s_at) / Fold change /veh VCAN (11755009_s_at) / RFU RHOB (11743442_s_at) / Fold change /veh RHOB (11743442_s_at) / RFU RGS16 (11720943_a_at) / Fold change /veh RGS16 (11720943_a_at) / RFU RGS16 (11720944_at) / Fold change /veh RGS16 (11720944_at) / RFU, VPS4B / Fold change vs veh, VPS4B / RFU, CREB1 / Fold change vs veh, CREB1 / RFU, DNAJC13 / Fold change vs veh, DNAJC13 / RFU, GNAQ / Fold change vs veh, GNAQ / RFU, CDK5R1 / Fold change vs veh, CDK5R1 / RFU, ZRANB3 / Fold change vs veh, ZRANB3 / RFU, CUL4A / Fold change vs veh, CUL4A / RFU, CCNY / Fold change vs veh, CCNY / RFU, UFL1 / Fold change vs veh, UFL1 / RFU, COG3 / Fold change vs veh, COG3 / RFU, DIAPH2 / Fold change vs veh, DIAPH2 / RFU, SKA2 / Fold change vs veh, SKA2 / RFU, AFF3 / Fold change vs veh, AFF3 / RFU, LMF1 / Fold change vs veh, LMF1 / RFU, IPO11 / Fold change vs veh, IPO11 / RFU, DFFB / Fold change vs veh, DFFB / RFU, FOXP1 / Fold change vs veh, FOXP1 / RFU, CARD8 / Fold change vs veh, CARD8 / RFU, STRN3 / Fold change vs veh, STRN3 / RFU, ADK / Fold change vs veh, ADK / RFU, RASSF2 / Fold change vs veh, RASSF2 / RFU, WIPF1 / Fold change vs veh, WIPF1 / RFU, LARP1B / Fold change vs veh, LARP1B / RFU, RASA1 / Fold change vs veh, RASA1 / RFU, RB1 / Fold change vs veh, RB1 / RFU, PPFIA1 / Fold change vs veh, PPFIA1 / RFU, MAT2A / Fold change vs veh, MAT2A / RFU, CCT5 / Fold change vs veh, CCT5 / RFU, WDR92 / Fold change vs veh, WDR92 / RFU, CUX1 / Fold change vs veh, CUX1 / RFU, TTC7A / Fold change vs veh, TTC7A / RFU, TMEM135 / Fold change vs veh, TMEM135 / RFU, DEPTOR / Fold change vs veh, DEPTOR / RFU, CPM / Fold change vs veh, CPM / RFU, DNAJB6 / Fold change vs veh, DNAJB6 / RFU, CACNA2D3 / Fold change vs veh, CACNA2D3 / RFU, DTX4 / Fold change vs veh, DTX4 / RFU, TFCP2 / Fold change vs veh, TFCP2 / RFU, GMCL1 /// GMCL1P1 / Fold change vs veh, GMCL1 /// GMCL1P1 / RFU, AEBP2 / Fold change vs veh, AEBP2 / RFU, SNHG1 /// SNORD22 /// SNORD25 /// SNORD26 /// SNORD27 /// SNORD28 /// SNORD29 /// SNORD31 / Fold change vs veh, SNHG1 /// SNORD22 /// SNORD25 /// SNORD26 /// SNORD27 /// SNORD28 /// SNORD29 /// SNORD31 / Fold change (Aza/veh), C12orf56 (ProbeSet 11735607_a_at) / Fold change (ACY-1035/veh), C12orf56 (ProbeSet 11735607_a_at) / Fold change (Aza/veh), FGFR1OP (ProbeSet 11751329_s_at) / Fold change (ACY-1035/veh), FGFR1OP (ProbeSet 11751329_s_at) / Fold change (Aza/veh), VPS36 (ProbeSet 11739960_a_at) / Fold change (ACY-1035/veh), VPS36 (ProbeSet 11739960_a_at) / RFU SYPL1 (11715823_x_at) / Fold change /veh SYPL1 (11715823_x_at) / RFU IGFBP7 (11715501_s_at) / Fold change /veh IGFBP7 (11715501_s_at) / RFU REEP3 (11722064_at) / Fold change /veh REEP3 (11722064_at) / RFU IGLL1 (11728026_x_at) / Fold change /veh IGLL1 (11728026_x_at): dose or concentration left out as unconfirmed", "details": "ProbeSet 11747937_a_at; LIST D", "data": [{"smiles": "Nc1ncn([C@@H]2O[C@H](CO)[C@@H](O)[C@H]2O)c(=O)n1", "note": "[azacitidine]", "values": [{"measurement": "RFU, DNAJB6", "result": 212.79, "unit": "RFU"}]}]}
